Reference: patent US10231954B2, “Neurodegenerative therapies” (LYTIX BIOPHARMA AS, priority 2014, dated 2019)

Key:
Format in all cases: biochemical
MAPKAP-K3 = MAPKAP-K3 (Homo sapiens, UniProt Q16644); assay: Kinase profiling MAPKAP-K3; details: 100 micromolar inhibitor concentration, 100 is no change; for remaining activity at 100 µM: read-out: residual kinase activity, MAPKAP-K3
Source text: (§1) Any value less that 25 is considered to be highly significant inhibition.

CHK2 = CHK2 (Homo sapiens, UniProt O96017); assay: Kinase profiling CHK2; details: 100 micromolar inhibitor concentration, 100 is no change; for remaining activity at 100 µM: read-out: residual kinase activity, CHK2
Source text: as §1

EPH-B1 = biological target: T1, EPH-B1 (Homo sapiens, UniProt P54762); assay: Kinase profiling EPH-B1; details: 100 micromolar inhibitor concentration, 100 is no change; for remaining activity at 100 µM: read-out: residual kinase activity, EPH-B1
T1 sequence (P54762 18-984): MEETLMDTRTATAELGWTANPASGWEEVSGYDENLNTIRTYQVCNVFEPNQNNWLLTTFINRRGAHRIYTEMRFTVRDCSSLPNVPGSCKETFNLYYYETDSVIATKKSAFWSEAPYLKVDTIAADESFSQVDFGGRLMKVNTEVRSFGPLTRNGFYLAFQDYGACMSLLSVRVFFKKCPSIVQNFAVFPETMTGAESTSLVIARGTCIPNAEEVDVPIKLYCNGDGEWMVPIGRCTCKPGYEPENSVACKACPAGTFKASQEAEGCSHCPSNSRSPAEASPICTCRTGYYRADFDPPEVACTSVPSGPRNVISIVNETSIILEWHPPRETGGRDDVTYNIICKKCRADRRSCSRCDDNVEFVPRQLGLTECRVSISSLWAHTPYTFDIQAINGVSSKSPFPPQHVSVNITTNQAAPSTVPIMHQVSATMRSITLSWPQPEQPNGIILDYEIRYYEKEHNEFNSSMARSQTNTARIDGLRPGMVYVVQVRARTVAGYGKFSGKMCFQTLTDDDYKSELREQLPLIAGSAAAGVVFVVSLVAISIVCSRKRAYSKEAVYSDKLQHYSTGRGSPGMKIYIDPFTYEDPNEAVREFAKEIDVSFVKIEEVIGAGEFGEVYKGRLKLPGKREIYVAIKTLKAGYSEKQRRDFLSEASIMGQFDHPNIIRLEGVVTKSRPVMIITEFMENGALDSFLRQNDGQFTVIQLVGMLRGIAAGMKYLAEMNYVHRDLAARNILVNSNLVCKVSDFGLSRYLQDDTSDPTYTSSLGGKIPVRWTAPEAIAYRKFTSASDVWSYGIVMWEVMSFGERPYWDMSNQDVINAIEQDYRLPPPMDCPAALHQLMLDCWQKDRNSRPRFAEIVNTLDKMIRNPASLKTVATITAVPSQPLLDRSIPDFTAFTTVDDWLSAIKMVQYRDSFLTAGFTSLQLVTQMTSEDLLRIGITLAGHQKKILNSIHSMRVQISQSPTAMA
Source text: as §1

ERK1 = ERK1 (Homo sapiens, UniProt P27361); assay: Kinase profiling ERK1; details: 100 micromolar inhibitor concentration, 100 is no change; for remaining activity at 100 µM: read-out: residual kinase activity, ERK1
Source text: as §1

BRK = BRK (Homo sapiens, UniProt Q13882); assay: Kinase profiling BRK; details: 100 micromolar inhibitor concentration, 100 is no change; for remaining activity at 100 µM: read-out: residual kinase activity, BRK
Source text: as §1

ULK2 = biological target: T2, ULK2 (Homo sapiens, UniProt Q8IYT8); assay: Kinase profiling ULK2; details: 100 micromolar inhibitor concentration, 100 is no change; for remaining activity at 100 µM: read-out: residual kinase activity, ULK2
T2 sequence (Q8IYT8 1-1036): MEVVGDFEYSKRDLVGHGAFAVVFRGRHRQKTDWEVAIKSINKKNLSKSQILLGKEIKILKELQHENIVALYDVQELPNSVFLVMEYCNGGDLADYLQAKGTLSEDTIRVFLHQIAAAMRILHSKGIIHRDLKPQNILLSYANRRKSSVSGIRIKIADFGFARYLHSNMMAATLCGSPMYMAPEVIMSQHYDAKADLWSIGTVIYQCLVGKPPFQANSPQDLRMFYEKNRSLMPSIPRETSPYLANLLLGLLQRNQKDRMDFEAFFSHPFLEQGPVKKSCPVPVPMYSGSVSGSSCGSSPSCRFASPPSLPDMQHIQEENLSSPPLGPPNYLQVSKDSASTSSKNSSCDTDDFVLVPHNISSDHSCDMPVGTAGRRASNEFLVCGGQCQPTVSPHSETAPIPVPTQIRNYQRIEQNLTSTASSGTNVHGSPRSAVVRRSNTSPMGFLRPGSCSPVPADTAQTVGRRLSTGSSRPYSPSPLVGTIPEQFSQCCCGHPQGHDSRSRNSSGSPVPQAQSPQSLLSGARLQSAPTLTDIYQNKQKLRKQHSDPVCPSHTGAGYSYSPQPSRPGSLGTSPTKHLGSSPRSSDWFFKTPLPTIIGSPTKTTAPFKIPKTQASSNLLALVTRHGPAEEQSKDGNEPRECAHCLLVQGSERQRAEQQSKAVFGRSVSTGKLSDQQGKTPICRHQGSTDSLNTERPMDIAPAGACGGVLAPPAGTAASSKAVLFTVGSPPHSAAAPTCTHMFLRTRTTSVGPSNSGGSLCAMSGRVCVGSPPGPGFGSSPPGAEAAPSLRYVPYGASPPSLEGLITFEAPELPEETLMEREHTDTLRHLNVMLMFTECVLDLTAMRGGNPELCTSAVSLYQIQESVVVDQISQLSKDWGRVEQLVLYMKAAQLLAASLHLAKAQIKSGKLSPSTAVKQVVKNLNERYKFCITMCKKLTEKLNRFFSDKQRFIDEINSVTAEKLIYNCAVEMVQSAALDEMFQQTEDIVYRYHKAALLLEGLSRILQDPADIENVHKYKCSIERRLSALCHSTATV
Source text: as §1

JNK2 = JNK2 (Homo sapiens, UniProt P45984); assay: Kinase profiling JNK2; details: 100 micromolar inhibitor concentration, 100 is no change; for remaining activity at 100 µM: read-out: residual kinase activity, JNK2
Source text: as §1

ERK5 = ERK5 (Homo sapiens, UniProt Q13164); assay: Kinase profiling ERK5; details: 100 micromolar inhibitor concentration, 100 is no change; for remaining activity at 100 µM: read-out: residual kinase activity, ERK5
Source text: as §1

CDK9-Cyclin T1 = CDK9-Cyclin T1 (Homo sapiens, UniProt P50750); assay: Kinase profiling CDK9-Cyclin T1; details: 100 micromolar inhibitor concentration, 100 is no change; for remaining activity at 100 µM: read-out: residual kinase activity, CDK9-Cyclin T1
Source text: as §1

CDK9-Cyclin T1, sequence (P50750 whole entry): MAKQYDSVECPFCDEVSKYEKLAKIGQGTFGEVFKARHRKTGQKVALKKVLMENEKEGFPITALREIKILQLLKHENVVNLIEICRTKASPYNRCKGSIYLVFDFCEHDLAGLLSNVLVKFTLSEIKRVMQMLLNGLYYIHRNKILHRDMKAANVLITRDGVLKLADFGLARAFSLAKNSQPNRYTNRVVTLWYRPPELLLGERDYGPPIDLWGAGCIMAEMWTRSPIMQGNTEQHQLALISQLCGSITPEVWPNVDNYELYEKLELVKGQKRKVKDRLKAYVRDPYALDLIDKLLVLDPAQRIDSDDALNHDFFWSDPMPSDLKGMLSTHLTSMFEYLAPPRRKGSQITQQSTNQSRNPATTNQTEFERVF
CDK9-Cyclin T1, sequence (O60563 whole entry partner): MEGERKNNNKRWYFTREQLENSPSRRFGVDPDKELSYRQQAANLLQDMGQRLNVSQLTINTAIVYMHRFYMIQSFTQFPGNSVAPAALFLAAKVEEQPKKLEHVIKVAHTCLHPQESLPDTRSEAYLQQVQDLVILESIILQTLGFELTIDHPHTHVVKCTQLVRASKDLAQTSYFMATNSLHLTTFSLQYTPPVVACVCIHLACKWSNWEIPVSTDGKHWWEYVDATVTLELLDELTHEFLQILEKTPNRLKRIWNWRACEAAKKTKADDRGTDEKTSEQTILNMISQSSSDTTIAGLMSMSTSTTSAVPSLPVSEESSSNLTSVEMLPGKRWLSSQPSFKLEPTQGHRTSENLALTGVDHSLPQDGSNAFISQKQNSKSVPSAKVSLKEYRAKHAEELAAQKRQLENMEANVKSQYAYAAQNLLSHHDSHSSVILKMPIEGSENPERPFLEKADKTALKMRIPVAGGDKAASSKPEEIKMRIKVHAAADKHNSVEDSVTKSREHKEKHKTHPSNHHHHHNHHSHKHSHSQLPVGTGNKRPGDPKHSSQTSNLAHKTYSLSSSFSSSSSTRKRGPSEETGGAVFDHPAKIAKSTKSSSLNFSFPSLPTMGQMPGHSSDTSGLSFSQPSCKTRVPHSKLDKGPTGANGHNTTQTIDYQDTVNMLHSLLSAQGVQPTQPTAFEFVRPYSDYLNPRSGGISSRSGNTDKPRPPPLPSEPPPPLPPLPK
BRK, sequence (Q13882 whole entry, species assumed): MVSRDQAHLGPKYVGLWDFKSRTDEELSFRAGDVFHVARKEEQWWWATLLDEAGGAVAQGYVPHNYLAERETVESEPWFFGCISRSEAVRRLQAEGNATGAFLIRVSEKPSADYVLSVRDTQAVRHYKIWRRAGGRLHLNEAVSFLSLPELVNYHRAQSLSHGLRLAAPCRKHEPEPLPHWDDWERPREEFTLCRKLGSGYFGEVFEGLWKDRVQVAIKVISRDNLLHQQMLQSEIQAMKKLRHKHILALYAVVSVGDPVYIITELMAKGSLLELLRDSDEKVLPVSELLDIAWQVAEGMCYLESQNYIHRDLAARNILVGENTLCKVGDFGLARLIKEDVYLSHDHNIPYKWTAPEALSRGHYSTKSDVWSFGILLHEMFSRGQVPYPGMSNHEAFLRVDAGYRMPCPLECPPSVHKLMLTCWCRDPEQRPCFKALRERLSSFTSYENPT
JNK2, sequence (P45984 whole entry, species assumed): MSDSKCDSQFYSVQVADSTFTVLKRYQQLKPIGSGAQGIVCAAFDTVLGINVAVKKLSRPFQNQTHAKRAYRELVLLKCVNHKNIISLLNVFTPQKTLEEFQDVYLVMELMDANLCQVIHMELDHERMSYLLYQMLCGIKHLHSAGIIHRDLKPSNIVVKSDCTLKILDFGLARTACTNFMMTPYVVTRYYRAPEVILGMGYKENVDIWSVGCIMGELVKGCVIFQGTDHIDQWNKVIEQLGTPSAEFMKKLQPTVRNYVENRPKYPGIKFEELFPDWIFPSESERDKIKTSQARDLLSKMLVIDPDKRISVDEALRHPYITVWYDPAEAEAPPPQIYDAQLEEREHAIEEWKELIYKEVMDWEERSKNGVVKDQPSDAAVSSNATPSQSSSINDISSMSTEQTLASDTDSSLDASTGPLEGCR
MAPKAP-K3, sequence (Q16644 whole entry, species assumed): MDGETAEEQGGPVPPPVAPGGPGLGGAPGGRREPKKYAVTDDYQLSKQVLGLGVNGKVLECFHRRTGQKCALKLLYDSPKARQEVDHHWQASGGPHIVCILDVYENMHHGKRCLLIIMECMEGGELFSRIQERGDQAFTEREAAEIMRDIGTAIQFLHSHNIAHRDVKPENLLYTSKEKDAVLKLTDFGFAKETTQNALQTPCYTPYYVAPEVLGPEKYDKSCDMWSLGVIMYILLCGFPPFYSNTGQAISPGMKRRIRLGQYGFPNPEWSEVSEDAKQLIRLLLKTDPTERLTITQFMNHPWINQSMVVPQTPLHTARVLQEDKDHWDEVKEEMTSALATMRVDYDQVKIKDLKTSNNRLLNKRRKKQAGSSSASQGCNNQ
ERK1, sequence (P27361 whole entry, species assumed): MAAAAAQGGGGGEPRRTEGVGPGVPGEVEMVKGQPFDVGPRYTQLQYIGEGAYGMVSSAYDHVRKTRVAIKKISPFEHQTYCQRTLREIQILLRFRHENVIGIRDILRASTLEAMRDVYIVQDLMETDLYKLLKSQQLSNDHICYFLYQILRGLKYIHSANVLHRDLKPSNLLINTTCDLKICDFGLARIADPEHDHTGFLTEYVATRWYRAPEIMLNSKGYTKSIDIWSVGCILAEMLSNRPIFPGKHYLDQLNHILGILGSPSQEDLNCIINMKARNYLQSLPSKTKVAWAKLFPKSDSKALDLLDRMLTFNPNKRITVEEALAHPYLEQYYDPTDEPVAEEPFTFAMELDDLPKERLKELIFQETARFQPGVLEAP
CHK2, sequence (O96017 whole entry, species assumed): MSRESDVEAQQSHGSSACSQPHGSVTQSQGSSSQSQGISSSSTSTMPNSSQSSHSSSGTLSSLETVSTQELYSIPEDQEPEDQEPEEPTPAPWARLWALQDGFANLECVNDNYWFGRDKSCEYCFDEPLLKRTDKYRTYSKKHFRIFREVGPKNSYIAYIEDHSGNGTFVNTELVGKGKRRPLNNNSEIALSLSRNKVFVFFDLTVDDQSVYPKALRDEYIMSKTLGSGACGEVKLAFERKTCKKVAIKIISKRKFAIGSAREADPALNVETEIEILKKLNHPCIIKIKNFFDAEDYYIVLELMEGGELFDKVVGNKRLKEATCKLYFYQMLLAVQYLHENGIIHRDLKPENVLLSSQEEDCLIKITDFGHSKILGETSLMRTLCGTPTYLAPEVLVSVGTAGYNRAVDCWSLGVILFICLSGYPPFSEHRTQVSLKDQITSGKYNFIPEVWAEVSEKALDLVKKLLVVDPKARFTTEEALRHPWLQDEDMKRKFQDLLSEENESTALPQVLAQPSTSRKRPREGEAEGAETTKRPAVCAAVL
ERK5, sequence (Q13164 whole entry, species assumed): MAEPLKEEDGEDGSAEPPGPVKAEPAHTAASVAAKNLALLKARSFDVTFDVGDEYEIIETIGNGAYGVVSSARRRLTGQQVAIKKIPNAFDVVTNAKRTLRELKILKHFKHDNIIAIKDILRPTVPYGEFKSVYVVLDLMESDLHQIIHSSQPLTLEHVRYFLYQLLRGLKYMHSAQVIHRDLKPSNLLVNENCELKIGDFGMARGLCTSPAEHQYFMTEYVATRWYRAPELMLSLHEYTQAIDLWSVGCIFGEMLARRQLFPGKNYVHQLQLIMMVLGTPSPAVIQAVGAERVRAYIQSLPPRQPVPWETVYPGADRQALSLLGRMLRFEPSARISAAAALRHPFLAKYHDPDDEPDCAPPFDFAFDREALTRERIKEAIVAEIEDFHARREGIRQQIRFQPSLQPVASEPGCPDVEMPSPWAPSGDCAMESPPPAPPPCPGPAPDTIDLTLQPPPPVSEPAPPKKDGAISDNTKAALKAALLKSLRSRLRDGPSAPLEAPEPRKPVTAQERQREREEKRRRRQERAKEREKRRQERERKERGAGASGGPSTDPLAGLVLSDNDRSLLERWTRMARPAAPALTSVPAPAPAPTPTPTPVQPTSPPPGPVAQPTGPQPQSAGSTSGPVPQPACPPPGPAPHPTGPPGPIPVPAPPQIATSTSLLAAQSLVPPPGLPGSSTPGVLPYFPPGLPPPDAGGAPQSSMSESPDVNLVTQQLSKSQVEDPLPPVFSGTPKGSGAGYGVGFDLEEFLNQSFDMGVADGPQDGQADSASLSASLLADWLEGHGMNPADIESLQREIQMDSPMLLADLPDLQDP

## O=C(Nc1nc2cc(O)ccc2s1)c1ccncc1 [Compound 03-11]
MAPKAP-K3
  residual kinase activity, MAPKAP-K3: 68
CHK2
  residual kinase activity, CHK2: 93
EPH-B1
  residual kinase activity, EPH-B1: 99
ERK1
  residual kinase activity, ERK1: 88
BRK
  residual kinase activity, BRK: 93
ULK2
  residual kinase activity, ULK2: 86
JNK2
  residual kinase activity, JNK2: 93
ERK5
  residual kinase activity, ERK5: 58
CDK9-Cyclin T1
  residual kinase activity, CDK9-Cyclin T1: 68

## O=C(Nc1nc2ccc(O)cc2s1)c1ccccn1 [Compound 03-12]
MAPKAP-K3
  residual kinase activity, MAPKAP-K3: 31
CHK2
  residual kinase activity, CHK2: 23
EPH-B1
  residual kinase activity, EPH-B1: 94
ERK1
  residual kinase activity, ERK1: 74
BRK
  residual kinase activity, BRK: 61
ULK2
  residual kinase activity, ULK2: 87
JNK2
  residual kinase activity, JNK2: 101
ERK5
  residual kinase activity, ERK5: 53
CDK9-Cyclin T1
  residual kinase activity, CDK9-Cyclin T1: 76

## O=C(Nc1nc2cc(O)ccc2s1)c1ccccn1 [Compound 03-13]
MAPKAP-K3
  residual kinase activity, MAPKAP-K3: 62
CHK2
  residual kinase activity, CHK2: 75
EPH-B1
  residual kinase activity, EPH-B1: 98
ERK1
  residual kinase activity, ERK1: 97
BRK
  residual kinase activity, BRK: 94
ULK2
  residual kinase activity, ULK2: 56
JNK2
  residual kinase activity, JNK2: 103
ERK5
  residual kinase activity, ERK5: 51
CDK9-Cyclin T1
  residual kinase activity, CDK9-Cyclin T1: 93

## COc1ccc2sc(NC(C)=O)nc2c1 [Compound 03-21]
MAPKAP-K3
  remaining activity at 100 µM: 97%
CHK2
  remaining activity at 100 µM: 58%
EPH-B1
  remaining activity at 100 µM: 99%
ERK1
  remaining activity at 100 µM: 87%
BRK
  remaining activity at 100 µM: 62%
ULK2
  remaining activity at 100 µM: 86%
JNK2
  remaining activity at 100 µM: 92%
ERK5
  remaining activity at 100 µM: 57%
CDK9-Cyclin T1
  remaining activity at 100 µM: 90%

## CC(=O)Nc1nc2ccccc2s1 [Compound 03-32]
MAPKAP-K3
  residual kinase activity, MAPKAP-K3: 61
CHK2
  residual kinase activity, CHK2: 87
EPH-B1
  residual kinase activity, EPH-B1: 97
ERK1
  residual kinase activity, ERK1: 83
BRK
  residual kinase activity, BRK: 89
ULK2
  residual kinase activity, ULK2: 92
JNK2
  residual kinase activity, JNK2: 105
ERK5
  residual kinase activity, ERK5: 66
CDK9-Cyclin T1
  residual kinase activity, CDK9-Cyclin T1: 45

## O=C(Nc1nc2cc(O)ccc2s1)c1cccnc1 [Compound 03-33]
MAPKAP-K3
  residual kinase activity, MAPKAP-K3: 97
CHK2
  residual kinase activity, CHK2: 46
EPH-B1
  residual kinase activity, EPH-B1: 104
ERK1
  residual kinase activity, ERK1: 93
BRK
  residual kinase activity, BRK: 46
ULK2
  residual kinase activity, ULK2: 85
JNK2
  residual kinase activity, JNK2: 92
ERK5
  residual kinase activity, ERK5: 58
CDK9-Cyclin T1
  residual kinase activity, CDK9-Cyclin T1: 97

## O=C(Nc1nc2ccc(O)cc2s1)c1ccccc1 [Compound 03-60]
MAPKAP-K3
  residual kinase activity, MAPKAP-K3: 92
CHK2
  residual kinase activity, CHK2: 5
EPH-B1
  residual kinase activity, EPH-B1: 98
ERK1
  residual kinase activity, ERK1: 67
BRK
  residual kinase activity, BRK: 14
ULK2
  residual kinase activity, ULK2: 69
JNK2
  residual kinase activity, JNK2: 107
ERK5
  residual kinase activity, ERK5: 30
CDK9-Cyclin T1
  residual kinase activity, CDK9-Cyclin T1: 76

## CC(=O)Nc1nc2cc(C(F)(F)F)ccc2s1 [Compound 03-73]
MAPKAP-K3
  remaining activity at 100 µM: 93%
CHK2
  remaining activity at 100 µM: 78%
EPH-B1
  remaining activity at 100 µM: 114%
ERK1
  remaining activity at 100 µM: 83%
BRK
  remaining activity at 100 µM: 106%
ULK2
  remaining activity at 100 µM: 88%
JNK2
  remaining activity at 100 µM: 111%
ERK5
  remaining activity at 100 µM: 67%
CDK9-Cyclin T1
  remaining activity at 100 µM: 97%

## CC(=O)Nc1nc2cc(C)ccc2s1 [Compound 03-76]
MAPKAP-K3
  residual kinase activity, MAPKAP-K3: 106
CHK2
  residual kinase activity, CHK2: 65
EPH-B1
  residual kinase activity, EPH-B1: 103
ERK1
  residual kinase activity, ERK1: 91
BRK
  residual kinase activity, BRK: 80
ULK2
  residual kinase activity, ULK2: 88
JNK2
  residual kinase activity, JNK2: 105
ERK5
  residual kinase activity, ERK5: 62
CDK9-Cyclin T1
  residual kinase activity, CDK9-Cyclin T1: 49

## CC(=O)Nc1nc2cc(F)ccc2s1 [Compound 03-77]
MAPKAP-K3
  remaining activity at 100 µM: 107%
CHK2
  remaining activity at 100 µM: 63%
EPH-B1
  remaining activity at 100 µM: 103%
ERK1
  remaining activity at 100 µM: 90%
BRK
  remaining activity at 100 µM: 91%
ULK2
  remaining activity at 100 µM: 83%
JNK2
  remaining activity at 100 µM: 99%
ERK5
  remaining activity at 100 µM: 38%
CDK9-Cyclin T1
  remaining activity at 100 µM: 46%

## O=C(Nc1nc2ccc(O)cc2s1)c1ccncc1 [Compound 08-42]
MAPKAP-K3
  residual kinase activity, MAPKAP-K3: 51
CHK2
  residual kinase activity, CHK2: 22
EPH-B1
  residual kinase activity, EPH-B1: 93
ERK1
  residual kinase activity, ERK1: 84
BRK
  residual kinase activity, BRK: 43
ULK2
  residual kinase activity, ULK2: 63
JNK2
  residual kinase activity, JNK2: 90
ERK5
  residual kinase activity, ERK5: 41
CDK9-Cyclin T1
  residual kinase activity, CDK9-Cyclin T1: 66

## O=C(Nc1nc2ccc(O)cc2s1)c1cccnc1 [Compound 08-44]
MAPKAP-K3
  residual kinase activity, MAPKAP-K3: 38
CHK2
  residual kinase activity, CHK2: 16
EPH-B1
  residual kinase activity, EPH-B1: 93
ERK1
  residual kinase activity, ERK1: 81
BRK
  residual kinase activity, BRK: 21
ULK2
  residual kinase activity, ULK2: 84
JNK2
  residual kinase activity, JNK2: 90
ERK5
  residual kinase activity, ERK5: 43
CDK9-Cyclin T1
  residual kinase activity, CDK9-Cyclin T1: 43
